Laboratory results taken from article PMC6979384, “Characterization of the plant homeodomain (PHD) reader family for their histone tail interactions” (Epigenetics & Chromatin, 2020).
Where no end group is shown, it is not given here. [ ]: non-standard residue; d: D form. Lys(Me3) = C[N+](C)(C)CCCC[C@H](N)C(=O)O; pT = C[C@@H](OP(=O)(O)O)[C@H](N)C(=O)O; Lys(Me) = CNCCCC[C@H](N)C(=O)O

What was measured:
Assay in all cases: Histone peptide microarray
Type in all cases: binding, human
KDM5A (1) = tested on: KDM5A (1)
How it was run: (§1)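 GST-tagged PHD readers, 0.5 μM, probed on a microarray of 293 synthetic histone peptides carrying single or combinatorial PTMs (optimized Petell protocol). Signals are averaged over 4 replicates and expressed as relative binding.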

KDM5A (3) = tested on: KDM5A (3)
How it was run: as §1

ING2 = tested on: ING2
How it was run: as §1

ING5 = tested on: ING5
How it was run: as §1

PHF13 = tested on: PHF13
How it was run: as §1

KDM7A = tested on: KDM7A
How it was run: as §1

PHF2 = tested on: PHF2
How it was run: as §1

BAZ2B = tested on: BAZ2B
How it was run: as §1

CHD5 (PPCC) = tested on: CHD5 (PPCC)
How it was run: as §1

TRIM66 (PB) = tested on: TRIM66 (PB)
How it was run: as §1

DIDO1 = tested on: DIDO1
How it was run: as §1

DPF2 (PPC2W2) = tested on: DPF2 (PPC2W2)
How it was run: as §1

ING4 = tested on: ING4
How it was run: as §1

TAF3 = tested on: TAF3
How it was run: as §1

KDM4C (TTP) = tested on: KDM4C (TTP)
How it was run: as §1

ING3 = tested on: ING3
How it was run: as §1

CHD4 (PPCC) = tested on: CHD4 (PPCC)
How it was run: as §1

SP140L = tested on: SP140L
How it was run: as §1

RAG2 = tested on: RAG2
How it was run: as §1

ING1 = tested on: ING1
How it was run: as §1

MORC3 (CW) = tested on: MORC3 (CW)
How it was run: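 Readout is array binding signal, reported as the mean and standard deviation over four replicates. Each purified GST-fused PHD domain was incubated at 0.5 μM with a library of 293 modified histone peptides.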

PHF21A = tested on: PHF21A
How it was run: as §1

KDM5B (1) = tested on: KDM5B (1)
How it was run: as §1

CHD5 (PCC) = tested on: CHD5 (PCC)
How it was run: as §1

PHF8 = tested on: PHF8
How it was run: as §1

PHF23 = tested on: PHF23
How it was run: as §1

PHRF1 (RP) = tested on: PHRF1 (RP)
How it was run: as §1

BPTF (PB) = tested on: BPTF (PB)
How it was run: as §1

KDM5B (3) = tested on: KDM5B (3)
How it was run: as §1

MLL5 = tested on: MLL5
How it was run: as §1

AIRE (PP) = tested on: AIRE (PP)
How it was run: as §1

[1] = histone peptide array, GST-tagged reader, arrays performed twice, n of 4
[2] = histone peptide array, GST-tagged reader, PPCC = Dual PHD + Dual Chromodomain, arrays performed twice, n of 4
[3] = histone peptide array, GST-tagged reader, PB = PHD + Bromodomain, arrays performed twice, n of 4

H3.3K36me3 (27-45): H3.3 27-45 (KSAPSTGGV[Lys(Me3)]KPHRYRPGT; UniProt P84243 28-46, looked up, fragment)
Array Heatmap signal, KDM5A (1) (KDM5A (1); [1]): 0.5417
Array Heatmap signal, KDM5A (3) (KDM5A (3); [1]): 0.4596
Array Heatmap signal, ING2 (ING2; [1]): 0.6059
Array Heatmap signal, ING5 (ING5; [1]): 0.3836
Array Heatmap signal, PHF13 (PHF13; [1]): 0.6344
Array Heatmap signal, KDM7A (KDM7A; [1]): 0.4319
Array Heatmap signal, PHF2 (PHF2; [1]): 0.459
Array Heatmap signal, BAZ2B (BAZ2B; [1]): 0.5018
Array Heatmap signal, CHD5 (PPCC) (CHD5 (PPCC); [2]): 0.5971
Array Heatmap signal, TRIM66 (PB) (TRIM66 (PB); [3]): 0.5777
Array Heatmap signal, DIDO1 (DIDO1; [1]): 0.6308
Array Heatmap signal, DPF2 (PPC2W2) (DPF2 (PPC2W2); histone peptide array, GST-tagged reader, PPC2W2 = Dual PHD + C2W2-type Zn-finger, arrays performed twice, n of 4): 0.6714
Array Heatmap signal, ING4 (ING4; [1]): 0.493
Array Heatmap signal, TAF3 (TAF3; [1]): 0.2966
Array Heatmap signal, KDM4C (TTP) (KDM4C (TTP); histone peptide array, GST-tagged reader, TTP = Tandem Tudor domain + PHD, arrays performed twice, n of 4): 0.5574
Array Heatmap signal, ING3 (ING3; [1]): 0.4806
Array Heatmap signal, CHD4 (PPCC) (CHD4 (PPCC); [2]): 0.6082
Array Heatmap signal, SP140L (SP140L; [1]): 0.3873
Array Heatmap signal, RAG2 (RAG2; [1]): 0.254
Array Heatmap signal, ING1 (ING1; [1]): 0.5245
Array Heatmap signal, MORC3 (CW) (MORC3 (CW); histone peptide array, GST-tagged reader, CW = CW-type Zn-finger, arrays performed twice, n of 4): 0.4025
Array Heatmap signal, PHF21A (PHF21A; [1]): 0.5086
Array Heatmap signal, KDM5B (1) (KDM5B (1); [1]): 0.6389
Array Heatmap signal, CHD5 (PCC) (CHD5 (PCC); histone peptide array, GST-tagged reader, PCC = PHD + Dual Chromodomain, arrays performed twice, n of 4): 0.837
Array Heatmap signal, PHF8 (PHF8; [1]): 0.3825
Array Heatmap signal, PHF23 (PHF23; [1]): 0.5271
Array Heatmap signal, PHRF1 (RP) (PHRF1 (RP); [1]): 0.4414
Array Heatmap signal, BPTF (PB) (BPTF (PB); [3]): 0.3644
Array Heatmap signal, KDM5B (3) (KDM5B (3); [1]): 0.5477
Array Heatmap signal, MLL5 (MLL5; [1]): 0.5409
Array Heatmap signal, AIRE (PP) (AIRE (PP); [1]): 0.5852

H3.3T32pK36me1 (27-45): H3.3 27-45 (KSAPS[pT]GGV[Lys(Me)]KPHRYRPGT; UniProt P84243 28-46, looked up, fragment)
Array Heatmap value (peptide array signal) (KDM5A (1); KDM5A (1), sheet "Array Heatmap", each array performed twice, total n = 4): 0.4102
Array Heatmap value (peptide array signal) (KDM5A (3); KDM5A (3), sheet "Array Heatmap", each array performed twice, total n = 4): 0.429
Array Heatmap value (peptide array signal) (ING2; ING2, sheet "Array Heatmap", each array performed twice, total n = 4): 0.5942
Array Heatmap value (peptide array signal) (ING5; ING5, sheet "Array Heatmap", each array performed twice, total n = 4): 0.288
Array Heatmap value (peptide array signal) (PHF13; PHF13, sheet "Array Heatmap", each array performed twice, total n = 4): 0.5172
Array Heatmap value (peptide array signal) (KDM7A; KDM7A, sheet "Array Heatmap", each array performed twice, total n = 4): 0.3406
Array Heatmap value (peptide array signal) (PHF2; PHF2, sheet "Array Heatmap", each array performed twice, total n = 4): 0.4286
Array Heatmap value (peptide array signal) (BAZ2B; BAZ2B, sheet "Array Heatmap", each array performed twice, total n = 4): 0.3924
Array Heatmap value (peptide array signal) (CHD5 (PPCC); CHD5 (PPCC), sheet "Array Heatmap", each array performed twice, total n = 4): 0.4567
Array Heatmap value (peptide array signal) (TRIM66 (PB); TRIM66 (PB), sheet "Array Heatmap", each array performed twice, total n = 4): 0.5132
Array Heatmap value (peptide array signal) (DIDO1; DIDO1, sheet "Array Heatmap", each array performed twice, total n = 4): 0.6188
Array Heatmap value (peptide array signal) (DPF2 (PPC2W2); DPF2 (PPC2W2), sheet "Array Heatmap", each array performed twice, total n = 4): 0.6269
Array Heatmap value (peptide array signal) (ING4; ING4, sheet "Array Heatmap", each array performed twice, total n = 4): 0.3862
Array Heatmap value (peptide array signal) (TAF3; TAF3, sheet "Array Heatmap", each array performed twice, total n = 4): 0.2218
Array Heatmap value (peptide array signal) (KDM4C (TTP); KDM4C (TTP), sheet "Array Heatmap", each array performed twice, total n = 4): 0.4138
Array Heatmap value (peptide array signal) (ING3; ING3, sheet "Array Heatmap", each array performed twice, total n = 4): 0.3966
Array Heatmap value (peptide array signal) (CHD4 (PPCC); CHD4 (PPCC), sheet "Array Heatmap", each array performed twice, total n = 4): 0.5131
Array Heatmap value (peptide array signal) (SP140L; SP140L, sheet "Array Heatmap", each array performed twice, total n = 4): 0.3216
Array Heatmap value (peptide array signal) (RAG2; RAG2, sheet "Array Heatmap", each array performed twice, total n = 4): 0.206
Array Heatmap value (peptide array signal) (ING1; ING1, sheet "Array Heatmap", each array performed twice, total n = 4): 0.4774
Array Heatmap value (peptide array signal) (MORC3 (CW); MORC3 (CW), sheet "Array Heatmap", each array performed twice, total n = 4): 0.3018
Array Heatmap value (peptide array signal) (PHF21A; PHF21A, sheet "Array Heatmap", each array performed twice, total n = 4): 0.4142
Array Heatmap value (peptide array signal) (KDM5B (1); KDM5B (1), sheet "Array Heatmap", each array performed twice, total n = 4): 0.6155
Array Heatmap value (peptide array signal) (CHD5 (PCC); CHD5 (PCC), sheet "Array Heatmap", each array performed twice, total n = 4): 0.7362
Array Heatmap value (peptide array signal) (PHF8; PHF8, sheet "Array Heatmap", each array performed twice, total n = 4): 0.3083
Array Heatmap value (peptide array signal) (PHF23; PHF23, sheet "Array Heatmap", each array performed twice, total n = 4): 0.4636
Array Heatmap value (peptide array signal) (PHRF1 (RP); PHRF1 (RP), sheet "Array Heatmap", each array performed twice, total n = 4): 0.3716
Array Heatmap value (peptide array signal) (BPTF (PB); BPTF (PB), sheet "Array Heatmap", each array performed twice, total n = 4): 0.2876
Array Heatmap value (peptide array signal) (KDM5B (3); KDM5B (3), sheet "Array Heatmap", each array performed twice, total n = 4): 0.4083
Array Heatmap value (peptide array signal) (MLL5; MLL5, sheet "Array Heatmap", each array performed twice, total n = 4): 0.508
Array Heatmap value (peptide array signal) (AIRE (PP); AIRE (PP), sheet "Array Heatmap", each array performed twice, total n = 4): 0.3866
